Results: patent publication US20260232759A1, “PEPTIDES THAT INHIBIT INFECTION BY SARS-COV-2, THE VIRUS THAT CAUSES COVID-19 DISEASE” (Wisconsin Alumni Research Foundation, priority 2021, published 2026)
Where two headings read alike, the source gives them in different places. Starred links: 1 amine or outer side, 2 acyl side, 3 side chain; linkers in the order of their positions; H or OH if unused. Non-standard residues stand in square brackets, D forms with d. Residues, ends and D or L forms follow the SMILES beside them. *: point of attachment. X2 = CC(C)CCC[C@@H](C)[C@H]1CC[C@H]2[C@@H]3CC=C4C[C@@H](OC(=O)CCOCCOCCOCCOCCNC(=O)C*)CC[C@]4(C)[C@H]3CC[C@]12C; X1 = O=C([C@H]1CNC[C@@H]1N[*:1])[*:2]; β3hE = N[C@@H](CCC(=O)O)CC(=O)O; β3hQ = NC(=O)CC[C@H](N)CC(=O)O; β3hD = NC(CC(=O)O)CC(=O)O

How the values were obtained:
[1] = Solubility of the peptides; assay type: physicochemical
SARS-CoV-2 S = target: T1, SARS-CoV-2 S (Severe acute respiratory syndrome coronavirus 2, UniProt P0DTC2); assay: β-Gal complementation-based cell-cell fusion assay (S-protein-mediated fusion)
T1 construct: expressed in transfected cells

[2] = IC50, inhibition of S-mediated fusion

| Molecule | solubility (in words) [1] | IC50 (SARS-CoV-2 S; [2]) [nM] | also measured |
| --- | --- | --- | --- |
| CC[C@H](C)[C@H](NC(=O)[C@H](C)NC(=O)[C@H](CCC(=O)O)NC(=O)[C@H](CCC(=O)O)NC(=O)[C@H](CC(C)C)NC(=O)[C@H](CCCCN)NC(=O)[C@H](CCCCN)NC(=O)[C@H](CCSC)NC(=O)[C@H](CCC(=O)O)NC(=O)[C@H](Cc1ccc(O)cc1)NC(=O)[C@H](CCC(=O)O)NC(=O)[C@H](CC(C)C)NC(=O)[C@H](CC(=O)O)NC(=O)[C@H](CC(C)C)NC(=O)[C@H](Cc1ccccc1)NC(=O)[C@@H](NC(=O)[C@@H](NC(=O)[C@H](CC(N)=O)NC(=O)[C@@H](NC(=O)[C@H](CCC(N)=O)NC(=O)[C@H](CC(=O)O)NC(=O)[C@H](CC(C)C)NC(=O)[C@@H](N)CO)[C@@H](C)CC)C(C)C)[C@@H](C)O)C(=O)N[C@@H](CCCCN)C(=O)N[C@@H](CCCCN)C(=O)N[C@@H](CC(C)C)C(=O)N[C@@H](CCC(=O)O)C(=O)N[C@@H](CCC(=O)O)C(=O)N[C@@H](CO)C(=O)N[C@@H](Cc1ccc(O)cc1)C(=O)N[C@H](C(=O)N[C@@H](CC(=O)O)C(=O)N[C@@H](CC(C)C)C(=O)N[C@@H](CCCCN)C(=O)N[C@@H](CCC(=O)O)C(=O)N[C@@H](CC(C)C)C(N)=O)[C@@H](C)CC [EK1] | improved solubility | – | – |
| CC[C@H](C)[C@H](NC(=O)[C@H](CCC(N)=O)NC(=O)[C@H](CO)NC(=O)[C@@H](NC(=O)[C@@H](N)CC(=O)O)[C@@H](C)CC)C(=O)N[C@@H](CC(N)=O)C(=O)N[C@@H](C)C(=O)N[C@@H](CO)C(=O)N[C@H](C(=O)N[C@H](C(=O)N[C@@H](CC(N)=O)C(=O)N[C@H](C(=O)N[C@@H](CCC(=O)O)C(=O)N[C@@H](Cc1ccc(O)cc1)C(=O)N[C@@H](CCC(=O)O)C(=O)N[C@H](C(=O)N[C@@H](CCCCN)C(=O)N[C@@H](CCCCN)C(=O)N[C@@H](CC(C)C)C(=O)N[C@@H](CCC(=O)O)C(=O)N[C@@H](CCC(=O)O)C(=O)N[C@H](C(=O)N[C@@H](C)C(=O)N[C@@H](CCCCN)C(=O)N[C@@H](CCCCN)C(=O)N[C@@H](CC(C)C)C(=O)N[C@@H](CCC(=O)O)C(=O)N[C@@H](CCC(=O)O)C(=O)N[C@@H](CO)C(=O)N[C@@H](CC(C)C)C(=O)N[C@H](C(=O)N[C@@H](CC(=O)O)C(=O)N[C@@H](CC(C)C)C(=O)N[C@@H](CCC(N)=O)C(=O)N[C@@H](CCC(=O)O)C(=O)N[C@@H](CC(C)C)C(N)=O)[C@@H](C)CC)C(C)C)[C@@H](C)CC)[C@@H](C)CC)C(C)C)C(C)C [Peptide 1] (H-DISQINASVVNIEYEIKKLEEVAKKLEESLIDLQEL-NH2; N-terminus and C-terminus assumed) | improved solubility | – | – |
| Ac-DISQINASVVNIEYEI[X1]KLE[β3hE]VA[X1]KLE[β3hE]SLIDLQELGSGSGC(X2)-NH2 [Bf APC/B3E] | – | – | IC50 (SARS-CoV-2 S; […], cell-cell fusion assay, peptides with poly(ethylene glycol)-cholesterol tail, read-out: IC50, inhibition of S-mediated fusion): ~50 nM |
| Ac-[β3hD]IS[β3hQ]INASVVNIEYEIKKLEEVAKKLEESLI[β3hD]LQ[β3hE]LGSGSGC(X2)-NH2 [D1 Q4 D32 E35] | – | ~50 | – |
| Ac-[β3hD]IS[β3hQ]INASVVNIEYEIKKLEEVAKKLEESLI[β3hD]L[β3hQ]ELGSGSGC(X2)-NH2 [D1 Q4 D32 Q34] | – | ~10 | – |
